According to patent publication US7425551B2, “Malonamide derivatives” (Hoffmann-La Roche Inc., priority 2006, dated 2008):
Where “and” joins values, the source holds several entries; their conditions need not be identical. Equal values may be shown once.

Target: T1, γ-secretase (Homo sapiens, UniProt P49768)
T1 construct: uses a HEK293 membrane fraction as a source of γ-secretase; endogenous in cells; host or cells: HEK293 (microsomal membrane fraction, solubilised in 0.25% CHAPSO)
Experiment: in vitro assay of γ-secretase activity (HEK293 membrane fraction, recombinant APP substrate, Abeta ELISA)
Assay type: biochemical
Conditions: γ-secretase inhibition; HEK293 membrane fraction solubilized in 0.25% CHAPSO, recombinant human APP C-terminal 100 amino acids substrate, Abeta detected by ELISA
Summary of the method: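 The microsomal fraction of HEK293 cells was solubilized in 0.25% CHAPSO and incubated with a His-tagged C-terminal 100-residue human APP fragment expressed in E. coli. Abeta peptides produced by cleavage were quantified by specific ELISA.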

Structure (SMILES) | IC50 [nM]
C[C@H](OC(=O)NCCC(F)(F)C(F)(F)F)C(=O)N[C@@H]1C(=O)N(CCO)c2ccccc2-c2ccccc21 [Example 38, (3,3,4,4,4-Pentafluoro-butyl)-carbamic acid (S)-1-[(S)-5-(2-hydroxy-ethyl)-6-oxo-6,7-dihydro-5H-dibenzo[b,d]azepin-7-ylcarbamoyl]-ethyl ester] | 12
CC(O)(C(=O)NCCC(F)(F)F)C(=O)N[C@@H]1C(=O)N(CCO)c2ccccc2-c2ccccc21 (stereo partly drawn) [Example 64, 2-Hydroxy-N—[(S)-5-(2-hydroxy-ethyl)-6-oxo-6,7-dihydro-5H-dibenzo[b,d]azepin-7-yl]-2-methyl-N′-(3,3,3-trifluoro-propyl)-malonamide] | 10
COCCN1C(=O)[C@@H](NC(=O)C(C)(O)C(=O)NCC(F)(F)C(F)(F)F)c2ccccc2-c2ccccc21 (single isomer, unassigned; epimer b) [Example 46] | 2
CC(C)(C(=O)NCC(F)(F)C(F)(F)F)C(=O)N[C@@H]1C(=O)N(CCO)c2ccccc2-c2ccccc21 [Example 6, N—[(S)-5-(2-Hydroxy-ethyl)-6-oxo-6,7-dihydro-5H-dibenzo[b,d]azepin-7-yl]-2,2-dimethyl-N′-(2,2,3,3,3-pentafluoro-propyl)-malonamide] | 2
C[C@H](OC(=O)NCC(F)(F)F)C(=O)N[C@@H]1C(=O)N(CCO)c2ccccc2-c2ccccc21 [Example 48, (2,2,2-Trifluoro-ethyl)-carbamic acid (S)-1-[(S)-5-(2-hydroxy-ethyl)-6-oxo-6,7-dihydro-5H-dibenzo[b,d]azepin-7-ylcarbamoyl]-ethyl ester] | 14
CC(O)(C(=O)NCCC(F)(F)C(F)(F)F)C(=O)N[C@@H]1C(=O)N(CCO)c2ccccc2-c2ccccc21 (stereo partly drawn) [Example 56, 2-Hydroxy-N—[(S)-5-(2-hydroxy-ethyl)-6-oxo-6,7-dihydro-5H-dibenzo[b,d]azepin-7-yl]-2-methyl-N′-(3,3,4,4,4-pentafluoro-butyl)-malonamide] | 2
C[C@@](F)(C(=O)NCCC(F)(F)F)C(=O)N[C@@H]1C(=O)N(CCOCc2ccccc2)c2ccccc2-c2ccccc21 [Example 51, (R)—N—[(S)-5-(2-Benzyloxy-ethyl)-6-oxo-6,7-dihydro-5H-dibenzo[b,d]azepin-7-yl]-2-fluoro-2-methyl-N′-(3,3,3-trifluoro-propyl)-malonamide] | 7
C[C@](F)(C(=O)NCCC(F)(F)C(F)(F)F)C(=O)N[C@@H]1C(=O)N(CCO)c2ccccc2-c2ccccc21 [Example 50, (S)-2-Fluoro-N—[(S)-5-(2-hydroxy-ethyl)-6-oxo-6,7-dihydro-5H-dibenzo[b,d]azepin-7-yl]-2-methyl-N′-(3,3,4,4,4-pentafluoro-butyl)-malonamide] | 16
CC(O)(C(=O)NCC(F)(F)C(F)(F)F)C(=O)N[C@@H]1C(=O)N(CCO)c2ccccc2-c2ccccc21 (stereo partly drawn) [Example 15, 2-Hydroxy-N—[(S)-5-(2-hydroxy-ethyl)-6-oxo-6,7-dihydro-5H-dibenzo[b,d]azepin-7-yl]-2-methyl-N′-(2,2,3,3,3-pentafluoro-propyl)-malonamide] | 1
CC(C(=O)NCC(F)(F)C(F)(F)F)C(=O)N[C@@H]1C(=O)N(CCOCc2ccccc2)c2ccccc2-c2ccccc21 (stereo partly drawn) [Example 2, N—[(S)-5-(2-Benzyloxy-ethyl)-6-oxo-6,7-dihydro-5H-dibenzo[b,d]azepin-7-yl]-2-methyl-N′-(2,2,3,3,3-pentafluoro-propyl)-malonamide] | 6
CC(O)(C(=O)NCCC(F)(F)C(F)(F)F)C(=O)N[C@@H]1C(=O)N(CCO)c2ccccc2-c2ccccc21 (single isomer, unassigned; epimer b) [Example 62, (S or R)-2-Hydroxy-N—[(S)-5-(2-hydroxy-ethyl)-6-oxo-6,7-dihydro-5H-dibenzo[b,d]azepin-7-yl]-2-methyl-N′-(3,3,4,4,4-pentafluoro-butyl)-malonamide, epimer B] | 1
CC(O)(C(=O)NCCC(F)(F)F)C(=O)N[C@@H]1C(=O)N(CCO)c2ccccc2-c2ccccc21 (single isomer, unassigned; epimer b) [Example 66, (S or R)-2-Hydroxy-N—[(S)-5-(2-hydroxy-ethyl)-6-oxo-6,7-dihydro-5H-dibenzo[b,d]azepin-7-yl]-2-methyl-N′-(3,3,3-trifluoro-propyl)-malonamide, epimer B] | 1
COCCN1C(=O)[C@@H](NC(=O)C(OC)C(=O)NCC(F)(F)C(F)(F)F)c2ccccc2-c2ccccc21 (stereo partly drawn) [Example 68, 2-Methoxy-N—[(S)-5-(2-methoxy-ethyl)-6-oxo-6,7-dihydro-5H-dibenzo[b,d]azepin-7-yl]-N′-(2,2,3,3,3-pentafluoro-propyl)-malonamide] | 9
CC(O)(C(=O)NCCC(F)(F)C(F)(F)F)C(=O)N[C@@H]1C(=O)N(CCOCc2ccccc2)c2ccccc2-c2ccccc21 (stereo partly drawn) [Example 55, N—[(S)-5-(2-Benzyloxy-ethyl)-6-oxo-6,7-dihydro-5H-dibenzo[b,d]azepin-7-yl]-2-hydroxy-2-methyl-N′-(3,3,4,4,4-pentafluoro-butyl)-malonamide] | 12

Tested on: not given
Experiment: not given
Conditions: not given

Structure (SMILES) | melting point
C[C@H](OC(=O)NCCC(F)(F)C(F)(F)F)C(=O)N[C@@H]1C(=O)N(CCO)c2ccccc2-c2ccccc21 [Example 38, (3,3,4,4,4-Pentafluoro-butyl)-carbamic acid (S)-1-[(S)-5-(2-hydroxy-ethyl)-6-oxo-6,7-dihydro-5H-dibenzo[b,d]azepin-7-ylcarbamoyl]-ethyl ester] | 181 to 184 °C
CC(O)(C(=O)NCCC(F)(F)F)C(=O)N[C@@H]1C(=O)N(CCO)c2ccccc2-c2ccccc21 (stereo partly drawn) [Example 64, 2-Hydroxy-N—[(S)-5-(2-hydroxy-ethyl)-6-oxo-6,7-dihydro-5H-dibenzo[b,d]azepin-7-yl]-2-methyl-N′-(3,3,3-trifluoro-propyl)-malonamide] | 61 to 69 °C and 59 to 62 °C and 64 to 71 °C
